Data reported in paper PMC6412895, “Synthesis, Characterization, and Biological Activity of a Novel Series of Benzo[4,5]imidazo[2,1-b]thiazole Derivatives as Potential Epidermal Growth Factor Receptor Inhibitors” (Molecules, 2019).

Assays:
HepG2 cells = assay: MTT anti-proliferative assay, HepG2; assay type: cell-based, human; conditions: EGFR low-expressed cell line
Method: (§1) The inhibitory activities of all target compounds against the cervical cancer cell line HeLa, human liver cancer cell line HepG2, human liver cell line HL7702, and human umbilical vein endothelial cell line HUVEC were determined by the 3-(4,5-dimethylthiazol-2-yl)-2,5-diphenyltetrazolium bromide (MTT) assay. As known, the EGFR level of the HeLa cells was highly expressed, while that of the HepG2 cells was low, and the HL7702 cells and HUVEC cells were human normal cells.
(§2) The human cancer cell lines (HeLa and HepG2) and the human normal ones (HL7702 and HUVEC) were chosen to evaluate the antitumor activity and cell toxicity of target compounds in vitro by the MTT assay. HeLa, HepG2, and HUVEC cells were cultured in a Dulbecco’s modified Eagle’s medium (DMEM) supplemented with 10% fetal bovine serum, and HL7702 cells were cultured in a DMEM supplemented with 10% fetal bovine serum. Cells were grown to 80–90% confluence and subjected to no more than 20 cell passages and were left to acclimatize for 24 h before any treatments. The cells were seeded into 96-well plates (8 * 10^4 cells/mL) and incubated at 37 °C in a humidified atmosphere containing 5% CO2 overnight. After 24 h, the cancer cells were treated with the target compounds at 100, 50, 25, 12.5, 6.25, 3.13, and 1.56 μmol/L; the human normal cells HL7702 were treated with 200 and 100 μmol/L of the target ones; and the HUVEC were treated with 100 and 50 μmol/L of the target compounds. After 24 h of incubation, MTT (5 mg/mL) was subsequently added and incubated for 4 h. Next, the culture medium was cleared, and the crystals were dissolved in DMSO. The optical densities (OD) at 490 nm were measured on a universal microplate reader (Bio-Tek instruments, Inc., EL × 800). Inhibitory effects were expressed as the percentage of IC50 value.

HUVEC cells = assay: MTT cell toxicity assay, HUVEC; assay type: cell-based; conditions: 24 h incubation, human normal cells
Method: as §1, §2

HeLa cells = assay: MTT anti-proliferative assay, HeLa; assay type: cell-based, human; conditions: 24 h incubation, EGFR high-expressed cell line
Method: as §1, §2

HL7702 cells = assay: MTT cell toxicity assay, HL7702 normal liver cells; assay type: cell-based; conditions: human normal liver cell line
Method: as §1, §2

EGFR kinase = EGFR kinase (Homo sapiens, UniProt P00533); assay: EGFR kinase assay (Kinase-Glo Plus luminescence); assay type: biochemical; conditions: 10 µM ATP, 30 °C, 40 minutes
Method: The EGFR kinase assays of the target compounds were performed by the intrinsic ATPase activity luminescence assay. All the enzymatic reactions were conducted at 30 °C for 40 minutes. The 50 µL reaction mixture contained 40 mM Tris, pH 7.4, 10 mM MgCl2, 0.1 mg/mL BSA, 1 mM DTT, 10 µM adenosine triphosphate (ATP), 0.2 ug/mL PI3 Kinase, and 100 µM lipid substrate. The compounds were diluted in 10% DMSO and 5 µL of the dilution was added to a 50 µL reaction so that the final concentration of DMSO was 1% in all the reactions. The assay was performed using the Kinase-Glo Plus luminescence kinase assay kit, which measures the kinase activity by quantifying the amount of ATP remaining in solution following a kinase reaction. The luminescent signal from the assay was correlated with the amount of ATP present and was inversely correlated with the amount of kinase activity. The IC50 values were calculated using nonlinear regression with a normalized dose−response fit using the Prism GraphPad software (version 6.0, GraphPad Software, San Diego, CA, USA).

[1] = Homo sapiens, HepG2, 24 h incubation

Chain of EGFR kinase (P00533 669-1210 limits assumed): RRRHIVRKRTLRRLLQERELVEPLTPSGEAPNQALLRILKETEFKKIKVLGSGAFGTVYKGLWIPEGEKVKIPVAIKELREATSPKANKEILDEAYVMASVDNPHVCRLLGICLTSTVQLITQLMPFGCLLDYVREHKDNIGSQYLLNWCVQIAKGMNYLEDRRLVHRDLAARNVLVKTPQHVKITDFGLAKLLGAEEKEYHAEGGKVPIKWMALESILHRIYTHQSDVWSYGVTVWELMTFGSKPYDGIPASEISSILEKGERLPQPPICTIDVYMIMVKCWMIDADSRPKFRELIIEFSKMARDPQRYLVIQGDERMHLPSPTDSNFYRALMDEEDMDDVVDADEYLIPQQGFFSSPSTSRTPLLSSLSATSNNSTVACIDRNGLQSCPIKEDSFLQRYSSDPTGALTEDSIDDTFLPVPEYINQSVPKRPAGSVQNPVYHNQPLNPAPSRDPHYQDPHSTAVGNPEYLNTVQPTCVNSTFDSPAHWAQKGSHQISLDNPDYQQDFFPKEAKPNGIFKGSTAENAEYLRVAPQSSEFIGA

melting point [°C]	IC50 (HepG2 cells; [1]) [µM]	IC50 (HeLa cells; Homo sapiens, HeLa) [µM]	IC50 (EGFR kinase) [µM]	IC50 (HeLa cells) [µM]	IC50 (HepG2 cells; 24 h incubation) [µM]	Molecule	IC50 (HUVEC cells; HUVEC) [µM]	IC50 (HL7702 cells; L02, 24 h incubation) [µM]	IC50 (HUVEC cells) [µM]	IC50 (HL7702 cells; 24 h incubation) [µM]
206 to 208	> 100	> 100				O=C(Cc1csc2nc3ccccc3n12)Nc1ccc(Cl)cc1Cl [Compound D17, 2-(Benzo[4,5]imidazo[2,1-b]thiazol-3-yl)-N-(2,4-dichlorophenyl)acetamide]	> 100	> 200		
101 to 103	> 100	> 100				O=C(Cc1csc2nc3ccccc3n12)Nc1ccc(O)cc1 [Compound D02, 2-(Benzo[4,5]imidazo[2,1-b]thiazol-3-yl)-N-(4-hydroxyphenyl)acetamide]	> 100	> 200		
101 to 103	> 100	32.1				O=C(Cc1csc2nc3ccccc3n12)Nc1cc(F)cc(F)c1 [Compound D16, 2-(Benzo[4,5]imidazo[2,1-b]thiazol-3-yl)-N-(3,5-difluorophenyl)acetamide]	> 100	> 200		
196 to 198	> 100	> 100				C=CCOc1ccc(NC(=O)Cc2csc3nc4ccccc4n23)cc1 [Compound D05, N-(4-(Allyloxy)phenyl)-2-(benzo[4,5]imidazo[2,1-b]thiazol-3-yl)acetamide]	> 100	> 200		
153 to 155	> 100	> 100				O=C(Cc1csc2nc3ccccc3n12)Nc1ccc(Cl)c(C(F)(F)F)c1 [Compound D10, 2-(Benzo[4,5]imidazo[2,1-b]thiazol-3-yl)-N-(4-chloro-3-(trifluoromethyl)phenyl)acetamide]	> 100	> 200		
132 to 134	> 100	> 100				O=C(Cc1csc2nc3ccccc3n12)Nc1cccc([N+](=O)[O-])c1 [Compound D06, 2-(Benzo[4,5]imidazo[2,1-b]thiazol-3-yl)-N-(3-nitrophenyl)acetamide]	> 100	> 200		
121 to 123	> 100	0.42	0.055			O=C(Cc1csc2nc3ccccc3n12)Nc1ccccc1O [Compound D04, 2-(Benzo[4,5]imidazo[2,1-b]thiazol-3-yl)-N-(2-hydroxyphenyl)acetamide]	> 100	> 200		
151 to 153	> 100	14.1	0.1			O=C(Cc1csc2nc3ccccc3n12)Nc1ccc(Cl)cc1 [Compound D09, 2-(Benzo[4,5]imidazo[2,1-b]thiazol-3-yl)-N-(4-chlorophenyl)acetamide]	> 100	> 200		
99 to 101	> 100	> 100				O=C(Cc1csc2nc3ccccc3n12)Nc1ccc([N+](=O)[O-])cc1 [Compound D07, 2-(Benzo[4,5]imidazo[2,1-b]thiazol-3-yl)-N-(4-nitrophenyl)acetamide]	> 100	> 200		
123 to 125	> 100	> 100				O=C(Cc1csc2nc3ccccc3n12)Nc1ccccc1 [Compound D01, 2-(Benzo[4,5]imidazo[2,1-b]thiazol-3-yl)-N-phenylacetamide]	> 100	> 200		
107 to 109	> 100	> 100				O=C(Cc1csc2nc3ccccc3n12)Nc1ccc(Br)cc1 [Compound D14, 2-(Benzo[4,5]imidazo[2,1-b]thiazol-3-yl)-N-(4-bromophenyl)acetamide]	> 100	> 200		
				43.7		2-(Benzo[4,5]imidazo[2,1-b]thiazol-3-yl)-N-(4-(trifluoromethyl)phenyl)acetamide [Compound D18]				
83 to 85	> 100	> 100				Cc1ccccc1NC(=O)Cc1csc2nc3ccccc3n12 [Compound D15, 2-(Benzo[4,5]imidazo[2,1-b]thiazol-3-yl)-N-(2-methylphenyl)acetamide]	> 100	> 200		
218 to 220	> 100	> 100				O=C(Cc1csc2nc3ccccc3n12)Nc1ccc(F)c(Br)c1 [Compound D13, 2-(Benzo[4,5]imidazo[2,1-b]thiazol-3-yl)-N-(3-bromo-4-fluorophenyl)acetamide]	> 100	> 200		
151 to 153	> 100	> 100				O=C(Cc1csc2nc3ccccc3n12)Nc1ccc(Br)c(F)c1 [Compound D11, 2-(Benzo[4,5]imidazo[2,1-b]thiazol-3-yl)-N-(4-bromo-3-fluorophenyl)acetamide]	> 100	> 200		
136 to 138	> 100	2.49	0.0883			O=C(Cc1csc2nc3ccccc3n12)Nc1cccc2ccccc12 [Compound D08, 2-(Benzo[4,5]imidazo[2,1-b]thiazol-3-yl)-N-(naphthalen-1-yl)acetamide]	> 100	> 200		
				> 100	> 100	2-(Benzo[4,5]imidazo[2,1-b]thiazol-3-yl)-N-(4-(benzyloxy)phenyl)acetamide [Compound D12]			> 100	> 200
111 to 113	> 100	> 100				O=C(Cc1csc2nc3ccccc3n12)Nc1cccc(O)c1 [Compound D03, 2-(Benzo[4,5]imidazo[2,1-b]thiazol-3-yl)-N-(3-hydroxyphenyl)acetamide]	> 100	> 200		
